The supplement of paper PMC13380429

Columns and labels:
Settings in all cases: 72 h
[1] = tested on: Caco-2; test: cell viability relative to DMSO; higher = less toxic
[2] = tested on: Calu-3; test: as above
[3] = tested on: U2OS; test: as above
[4] = tested on: HepG2; test: as above
[5] = tested on: Vero E6; test: as above
[6] = tested on: Caco-2; test: drug sensitivity score (DSS) for viability; higher = more toxic; extreme values may be limits of the assay
[7] = tested on: Calu-3; test: as above
[8] = tested on: U2OS; test: as above
[9] = tested on: HepG2; test: as above
[10] = tested on: Vero E6; test: as above
[11] = tested on: Caco-2; test: relative viability EC50 (midpoint between 100% and the lowest measured viability); higher = less toxic
[12] = tested on: Calu-3; test: as above
[13] = tested on: U2OS; test: as above
[14] = tested on: HepG2; test: as above
[15] = tested on: Vero E6; test: as above

| Compound | cell viability ([1]; 1 nM) [%] | cell viability ([1]; 10 nM) [%] | cell viability ([1]; 100 nM) [%] | cell viability ([1]; 1000 nM) [%] | cell viability ([1]; 10000 nM) [%] | cell viability ([2]; 1 nM) [%] | cell viability ([2]; 10 nM) [%] | cell viability ([2]; 100 nM) [%] | cell viability ([2]; 1000 nM) [%] | cell viability ([2]; 10000 nM) [%] | cell viability ([3]; 1 nM) [%] | cell viability ([3]; 10 nM) [%] | cell viability ([3]; 100 nM) [%] | cell viability ([3]; 1000 nM) [%] | cell viability ([3]; 10000 nM) [%] | cell viability ([4]; 1 nM) [%] | cell viability ([4]; 10 nM) [%] | cell viability ([4]; 100 nM) [%] | cell viability ([4]; 1000 nM) [%] | cell viability ([4]; 10000 nM) [%] | cell viability ([5]; 1 nM) [%] | cell viability ([5]; 10 nM) [%] | cell viability ([5]; 100 nM) [%] | cell viability ([5]; 1000 nM) [%] | cell viability ([5]; 10000 nM) [%] | drug sensitivity score [6] | drug sensitivity score [7] | drug sensitivity score [8] | drug sensitivity score [9] | drug sensitivity score [10] | relative viability EC50 [11] [µM] | relative viability EC50 [12] [µM] | relative viability EC50 [13] [µM] | relative viability EC50 [14] [µM] | relative viability EC50 [15] [µM] |
| --- | --- | --- | --- | --- | --- | --- | --- | --- | --- | --- | --- | --- | --- | --- | --- | --- | --- | --- | --- | --- | --- | --- | --- | --- | --- | --- | --- | --- | --- | --- | --- | --- | --- | --- | --- |
| CC(=O)Nc1c(I)cc(I)c(C(=O)O)c1I [acetriazoic-acid] | 91.2 | 92 | 96.3 | 97.8 | 102 | 98.6 | 95.3 | 95.1 | 99.4 | 97.1 | 94.2 | 92.4 | 98.7 | 97.2 | 98.2 | 96.6 | 92.1 | 89.9 | 95.8 | 107 | 93.2 | 99 | 93.8 | 98.4 | 102 | 0 | 0 | 0 | 0 | 0 | > 10 | > 10 | > 10 | > 10 | > 10 |
| O=C(NCC1CCCCN1)c1cc(OCC(F)(F)F)ccc1OCC(F)(F)F (stereo not given) [flecainide] | 94.1 | 89.9 | 94.5 | 86 | 104 | 108 | 100 | 97.5 | 101 | 101 | 98.8 | 97.2 | 103 | 100 | 97.6 | 96.5 | 103 | 93.3 | 94.9 | 106 | 90 | 99.6 | 90.1 | 93.8 | 99.1 | 0 | 0 | 0 | 0 | 0 | > 10 | > 10 | > 10 | > 10 | > 10 |
| O=C(O)C1=CCCN(CCON=C(c2ccccc2)c2ccccc2)C1 [NNC-711] | 102 | 95.6 | 104 | 96 | 101 | 108 | 100 | 102 | 101 | 98.9 | 98.7 | 95.5 | 103 | 101 | 98.5 | 93.4 | 100 | 99.1 | 109 | 101 | 90.4 | 103 | 101 | 97.4 | 114 | 0 | 0 | 0 | 0 | 0 | > 10 | > 10 | > 10 | > 10 | > 10 |
| Cc1ncc(-c2csc(N=C(N)N)n2)[nH]1 [zaltidine] | 101 | 99 | 92.3 | 92.5 | 109 | 108 | 96 | 99.2 | 103 | 103 | 104 | 97.9 | 97.8 | 104 | 106 | 105 | 105 | 101 | 94.5 | 107 | 99.6 | 92.6 | 87.3 | 94.2 | 107 | 0 | 0 | 0 | 0 | 0 | > 10 | > 10 | > 10 | > 10 | > 10 |
| Cc1c(F)cccc1NC(=O)Nc1ccc(Cl)c(S(=O)(=O)[C@H]2CCCNC2)c1O [danirixin] | 99.3 | 104 | 93.4 | 99.4 | 95.9 | 84.6 | 88.3 | 91.8 | 93.1 | 95.6 | 99 | 104 | 95.4 | 98.8 | 98.8 | 94.8 | 93.1 | 103 | 94.7 | 106 | 106 | 106 | 106 | 98.2 | 100 | 0 | 0 | 0 | 0 | 0 | > 10 | > 10 | > 10 | > 10 | > 10 |
| O=C(Oc1ccc(Br)cc1)N1CCN2CCC1CC2 | 101 | 105 | 94.2 | 98 | 102 | 97.5 | 101 | 101 | 100 | 95.7 | 99 | 102 | 104 | 99 | 98.4 | 97.7 | 101 | 97 | 103 | 108 | 94.2 | 101 | 93.5 | 95.5 | 104 | 0 | 0 | 0 | 0 | 0 | > 10 | > 10 | > 10 | > 10 | > 10 |
| O=C(NCCO)c1cccc(-c2cc(Nc3ccc(OC(F)(F)F)cc3)ncn2)c1 [GNF-5] | 94.1 | 92.7 | 95.3 | 107 | 78.5 | 102 | 99.4 | 89.8 | 107 | 94 | 95.7 | 101 | 98.5 | 106 | 98.5 | 99.5 | 95.2 | 98.2 | 98.1 | 89.4 | 91.5 | 97.4 | 94.6 | 105 | 102 | 0.4 | 0 | 0 | 0 | 0 | > 10 | > 10 | > 10 | > 10 | > 10 |
| C[C@@H]1CC[C@H]2[C@@H](C)C(=O)O[C@@H]3O[C@@]4(C)CC[C@@H]1[C@]32OO4 [artemisinin] | 95.6 | 104 | 102 | 91.4 | 81.6 | 101 | 102 | 99.5 | 95.4 | 97.5 | 96.9 | 99.8 | 94.6 | 91.1 | 78.6 | 97.3 | 93.1 | 88.7 | 86.1 | 77.1 | 97.5 | 95.4 | 98 | 96.9 | 100 | 1.3 | 0 | 1.1 | 2.5 | 0 | > 10 | > 10 | > 10 | > 10 | > 10 |
| COc1cc(OC)c(/C=C/S(=O)(=O)Cc2ccc(OC)c(OP(=O)(O)O)c2)c(OC)c1 [briciclib] | 106 | 103 | 45.1 | 42 | 42.9 | 101 | 108 | 94.9 | 65.2 | 41 | 102 | 104 | 73.4 | 23.7 | 18.2 | 113 | 108 | 56.1 | 36 | 38.7 | 95.9 | 92.2 | 23.6 | 21.2 | 26.9 | 17.5 | 7.4 | 17.5 | 17 | 25.5 | 0.0392 | 0.75 | 0.161 | 0.0738 | 0.0246 |
| C[C@]12CCC(=O)C=C1CC[C@@H]1[C@@H]2C(=O)C[C@]2(C)C(=O)CC[C@@H]12 [adrenosterone] | 107 | 96 | 98 | 95 | 97.5 | 106 | 92.5 | 100 | 98.1 | 96.4 | 103 | 95 | 98.2 | 97.4 | 99.1 | 98.6 | 98.8 | 94.5 | 97.7 | 97.5 | 95.3 | 100 | 99.3 | 97.5 | 97.1 | 0 | 0 | 0 | 0 | 0 | > 10 | > 10 | > 10 | > 10 | > 10 |
| Cc1nnc(C(C)C)n1C1C[C@H]2CC[C@@H](C1)N2CC[C@H](NC(=O)C1CCC(F)(F)CC1)c1ccccc1 (stereo in doubt) [maraviroc] | 101 | 93.8 | 99.5 | 97.9 | 108 | 107 | 89.8 | 101 | 108 | 114 | 99.4 | 95.1 | 100 | 99.7 | 106 | 114 | 97.3 | 94.4 | 86.5 | 101 | 97.4 | 97.8 | 97.1 | 92.3 | 104 | 0 | 0 | 0 | 0 | 0 | > 10 | > 10 | > 10 | > 10 | > 10 |
| CCCCOc1cc(C(=O)NCCN(CC)CC)c2ccccc2n1 [cinchocaine] | 99.9 | 95 | 103 | 94.2 | 88.1 | 96.6 | 94.4 | 97.4 | 94.3 | 92.3 | 100 | 98.2 | 101 | 98.1 | 101 | 97.2 | 107 | 102 | 94.7 | 89.2 | 103 | 104 | 97.8 | 103 | 94.1 | 0.3 | 0 | 0 | 0.1 | 0 | > 10 | > 10 | > 10 | > 10 | > 10 |
| CCC[C@H](NC(=O)[C@@H]1[C@H]2CCC[C@H]2CN1C(=O)[C@@H](NC(=O)[C@@H](NC(=O)c1cnccn1)C1CCCCC1)C(C)(C)C)C(=O)C(=O)NC1CC1 [telaprevir] | 101 | 93.1 | 95.6 | 102 | 91.5 | 106 | 88.1 | 101 | 93.6 | 97.6 | 99.2 | 97.9 | 102 | 98.8 | 93.9 | 115 | 108 | 98.8 | 107 | 87 | 100 | 103 | 98.9 | 105 | 99 | 0 | 0 | 0 | 0 | 0 | > 10 | > 10 | > 10 | > 10 | > 10 |
| Cc1cc(Nc2nc(N[C@@H](C)c3ncc(F)cn3)ncc2Cl)[nH]n1 [AZD1480] | 93.2 | 102 | 95.5 | 102 | 84.2 | 106 | 91.6 | 99.7 | 96.6 | 90.8 | 99.7 | 102 | 102 | 101 | 97 | 98.6 | 101 | 96.5 | 87.9 | 89.4 | 94.3 | 96.2 | 95.9 | 100 | 97.9 | 0.2 | 0 | 0 | 0.7 | 0 | > 10 | > 10 | > 10 | > 10 | > 10 |
